Assay [1] deals with T1, PaLhpI (aconitase X, AcnX Type I; cis-3-hydroxy-L-proline dehydratase) (Pseudomonas aeruginosa, UniProt Q9I485). The experiment in a line: substrate turnover by purified enzyme (HPLC), coupled with reductase. Also on record: gene lhpI; N-terminal (His)6-tagged recombinant protein. In kind it is biochemical.
The target of the next assay is T2, TrLhpI (AcnX Type I) (Trichoderma reesei, UniProt G0REW7).
T2 construct: gene lhpI; N-terminal (His)6-tagged recombinant protein
T2 sequence (G0REW7 1-596): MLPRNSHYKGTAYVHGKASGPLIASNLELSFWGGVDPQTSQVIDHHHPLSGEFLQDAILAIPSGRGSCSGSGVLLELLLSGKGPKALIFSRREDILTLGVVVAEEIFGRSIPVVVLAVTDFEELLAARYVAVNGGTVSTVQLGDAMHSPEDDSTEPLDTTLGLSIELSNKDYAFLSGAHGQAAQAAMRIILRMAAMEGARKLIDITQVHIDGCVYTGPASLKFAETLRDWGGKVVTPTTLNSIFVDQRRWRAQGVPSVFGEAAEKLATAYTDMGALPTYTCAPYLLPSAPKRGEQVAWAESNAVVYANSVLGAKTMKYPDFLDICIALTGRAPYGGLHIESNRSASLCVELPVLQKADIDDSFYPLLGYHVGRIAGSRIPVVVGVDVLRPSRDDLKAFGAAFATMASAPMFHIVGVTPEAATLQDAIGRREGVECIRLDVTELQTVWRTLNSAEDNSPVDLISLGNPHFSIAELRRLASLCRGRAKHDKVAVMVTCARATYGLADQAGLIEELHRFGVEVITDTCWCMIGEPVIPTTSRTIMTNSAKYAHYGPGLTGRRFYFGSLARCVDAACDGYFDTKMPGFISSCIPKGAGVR
The experiment in a line: substrate turnover by purified enzyme (amino acid analyzer, Lineweaver-Burk kinetics). In kind it is biochemical.

Assay [2] deals with T1, PaLhpI (aconitase X, AcnX Type I; cis-3-hydroxy-L-proline dehydratase). The experiment in a line: substrate turnover by purified enzyme (HPLC/amino acid analyzer, 1H NMR, coupled assay). In kind it is biochemical. Also on record: gene lhpI; N-terminal (His)6-tagged recombinant protein.
In a further assay the target is T3, AtLhpI (AcnX Type I) (Agrobacterium fabrum, UniProt A9CH00).
T3 construct: gene lhpI; N-terminal (His)6-tagged recombinant protein
T3 sequence (A9CH00 1-569): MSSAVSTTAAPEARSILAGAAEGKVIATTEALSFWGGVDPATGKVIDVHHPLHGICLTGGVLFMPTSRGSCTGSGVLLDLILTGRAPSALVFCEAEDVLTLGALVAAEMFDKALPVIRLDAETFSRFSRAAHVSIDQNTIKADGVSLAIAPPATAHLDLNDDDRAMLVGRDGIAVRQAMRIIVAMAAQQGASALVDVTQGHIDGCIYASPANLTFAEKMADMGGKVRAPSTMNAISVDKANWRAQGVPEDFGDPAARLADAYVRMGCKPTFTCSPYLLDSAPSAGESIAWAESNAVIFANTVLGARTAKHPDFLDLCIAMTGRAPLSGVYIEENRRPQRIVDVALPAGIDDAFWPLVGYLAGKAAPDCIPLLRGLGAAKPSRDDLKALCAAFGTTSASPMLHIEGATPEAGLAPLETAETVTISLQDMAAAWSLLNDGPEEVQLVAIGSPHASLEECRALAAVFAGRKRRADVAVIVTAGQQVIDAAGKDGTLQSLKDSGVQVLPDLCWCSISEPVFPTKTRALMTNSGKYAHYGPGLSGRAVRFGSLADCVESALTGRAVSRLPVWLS
Put plainly: substrate turnover by purified enzyme, Lineweaver-Burk kinetics. In kind it is biochemical.

For assay [3], the target named is T1, PaLhpI (aconitase X, AcnX Type I; cis-3-hydroxy-L-proline dehydratase). Also on record: gene lhpI.
A further assay deals with T4, PaLhpL (Pseudomonas aeruginosa, UniProt Q9I489).
T4 construct: gene lhpL
T4 sequence (Q9I489 1-344): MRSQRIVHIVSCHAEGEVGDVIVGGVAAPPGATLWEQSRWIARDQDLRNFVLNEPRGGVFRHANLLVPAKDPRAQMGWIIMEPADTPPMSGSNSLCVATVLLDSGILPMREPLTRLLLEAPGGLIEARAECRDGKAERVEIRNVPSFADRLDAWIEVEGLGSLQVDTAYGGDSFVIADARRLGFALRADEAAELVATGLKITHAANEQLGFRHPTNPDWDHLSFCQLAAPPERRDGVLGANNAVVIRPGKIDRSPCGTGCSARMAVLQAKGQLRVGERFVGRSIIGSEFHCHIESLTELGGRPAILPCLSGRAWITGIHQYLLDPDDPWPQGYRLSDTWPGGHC
The experiment in a line: bifunctional dehydratase and 2-epimerase activity (details in supplement, Fig. S6). In kind it is biochemical.

T1 sequence (Q9I485 whole entry): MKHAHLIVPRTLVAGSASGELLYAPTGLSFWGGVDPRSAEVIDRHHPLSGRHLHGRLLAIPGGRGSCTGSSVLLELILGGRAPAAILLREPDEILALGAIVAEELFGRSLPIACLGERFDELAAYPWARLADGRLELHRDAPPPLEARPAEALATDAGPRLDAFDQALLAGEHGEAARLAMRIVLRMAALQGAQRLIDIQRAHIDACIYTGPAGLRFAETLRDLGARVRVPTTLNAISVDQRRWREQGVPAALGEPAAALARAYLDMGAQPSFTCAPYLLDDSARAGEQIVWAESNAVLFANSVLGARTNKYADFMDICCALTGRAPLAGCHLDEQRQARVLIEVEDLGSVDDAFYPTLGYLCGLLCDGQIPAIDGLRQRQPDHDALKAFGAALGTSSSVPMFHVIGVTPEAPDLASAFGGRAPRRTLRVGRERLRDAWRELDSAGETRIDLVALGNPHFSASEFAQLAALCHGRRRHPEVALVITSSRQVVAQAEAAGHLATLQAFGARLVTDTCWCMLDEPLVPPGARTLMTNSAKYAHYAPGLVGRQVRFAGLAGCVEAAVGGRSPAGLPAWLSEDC

`O=C(O)[C@H]1NC[C@@H](O)[C@H]1O` [2,3-cis-3,4-cis-3,4-dihydroxy-L-proline]: in assay [1], the “substrate turnover by purified enzyme (HPLC), coupled with reductase” value is 0.130 µmol/min/mg.
In the case of `O=C(O)[C@H]1NCC[C@H]1O` [cis-3-hydroxy-L-proline], the “substrate turnover by purified enzyme (amino acid analyzer, Lineweaver-Burk kine)” value at TrLhpI (AcnX Type I) turned out to be 3.75 µmol/min/mg. Besides, the “substrate turnover by purified enzyme (HPLC/amino acid analyzer, 1H NMR, coupled)” value in assay [2] was determined as 39.5 µmol/min/mg. Further, the “substrate turnover by purified enzyme, Lineweaver-Burk kinetics” value at AtLhpI (AcnX Type I) is on record as “among eight proline derivatives (Fig. S1), only cis-3-hydroxy-L-proline was consumed in a time-dependent manner by both proteins”.
On to `O=C(O)c1ccc[nH]1` [pyrrole-2-carboxylate], for which, in assay [3], the IC50 was ~ 440-fold that of Cd^2+ (2.05 × 10^−3 mM).
With `O=C(O)[C@H]1NCC[C@@H]1O` [trans-3-hydroxy-L-proline], on PaLhpL, the “bifunctional dehydratase and 2-epimerase activity (details in supplement, Fig. S)” value is “PaLhpL gene (PA1255; Fig. 1d) in the L-hydroxyproline gene cluster encodes a bifunctional dehydratase and 2-epimerase toward trans-3-hydroxy-L-proline”.
